# Structures can show the parent of a compound that is named as a salt.
# Key:
# Assay in all cases: Agar dilution test, minimum inhibitory concentration
# Assay type in all cases: cell-based
# E.coli Neumann = settings: Escherichia coli; test strain E.coli Neumann; Isosensitest-Agar (Oxoid), inoculum ca. 10^4 germs per inoculation point; read-out: Minimale Hemmkonzentrationen
# E.coli 455/7 = settings: Escherichia coli; test strain E.coli 455/7; Isosensitest-Agar (Oxoid), inoculum ca. 10^4 germs per inoculation point; read-out: Minimale Hemmkonzentrationen
# E.coli A261 = settings: Escherichia coli; test strain E.coli A261; Isosensitest-Agar (Oxoid), inoculum ca. 10^4 germs per inoculation point; read-out: Minimale Hemmkonzentrationen
# Klebsiella 63 = settings: test strain Klebsiella 63; Isosensitest-Agar (Oxoid), inoculum ca. 10^4 germs per inoculation point; read-out: Minimale Hemmkonzentrationen
# Klebsiella 8085 = settings: test strain Klebsiella 8085; Isosensitest-Agar (Oxoid), inoculum ca. 10^4 germs per inoculation point; read-out: Minimale Hemmkonzentrationen
# Proteus mir. 8223 = settings: test strain Proteus mir. 8223; Isosensitest-Agar (Oxoid), inoculum ca. 10^4 germs per inoculation point; read-out: Minimale Hemmkonzentrationen
# Proteus mir. 8175 = settings: test strain Proteus mir. 8175; Isosensitest-Agar (Oxoid), inoculum ca. 10^4 germs per inoculation point; read-out: Minimale Hemmkonzentrationen
# Morg. morg. 11006 = settings: test strain Morg. morg. 11006; Isosensitest-Agar (Oxoid), inoculum ca. 10^4 germs per inoculation point; read-out: Minimale Hemmkonzentrationen
# Providencia 12052 = settings: test strain Providencia 12052; Isosensitest-Agar (Oxoid), inoculum ca. 10^4 germs per inoculation point; read-out: Minimale Hemmkonzentrationen
# Serratia 16040 = settings: test strain Serratia 16040; Isosensitest-Agar (Oxoid), inoculum ca. 10^4 germs per inoculation point; read-out: Minimale Hemmkonzentrationen
# Staph. 133 = settings: test strain Staph. 133; Isosensitest-Agar (Oxoid), inoculum ca. 10^4 germs per inoculation point; read-out: Minimale Hemmkonzentrationen
# Enteroc. 27101 = settings: test strain Enteroc. 27101; Isosensitest-Agar (Oxoid), inoculum ca. 10^4 germs per inoculation point; read-out: Minimale Hemmkonzentrationen
# Enteroc. 9790 = settings: test strain Enteroc. 9790; Isosensitest-Agar (Oxoid), inoculum ca. 10^4 germs per inoculation point; read-out: Minimale Hemmkonzentrationen
# Pseudomonas Walter = settings: test strain Pseudomonas Walter; Isosensitest-Agar (Oxoid), inoculum ca. 10^4 germs per inoculation point; read-out: Minimale Hemmkonzentrationen
# Pseudomonas Ellsworth = settings: test strain Pseudomonas Ellsworth; Isosensitest-Agar (Oxoid), inoculum ca. 10^4 germs per inoculation point; read-out: Minimale Hemmkonzentrationen
# Proteus vulg. 1017 = settings: test strain Proteus vulg. 1017; Isosensitest-Agar (Oxoid), inoculum ca. 10^4 germs per inoculation point; read-out: Minimale Hemmkonzentrationen
# Staph. 1756 = settings: test strain Staph. 1756; Isosensitest-Agar (Oxoid), inoculum ca. 10^4 germs per inoculation point; read-out: Minimale Hemmkonzentrationen
# Morg. morg. 932 = settings: test strain Morg. morg. 932; Isosensitest-Agar (Oxoid), inoculum ca. 10^4 germs per inoculation point; read-out: Minimale Hemmkonzentrationen
# Providencia 12012 = settings: test strain Providencia 12012; Isosensitest-Agar (Oxoid), inoculum ca. 10^4 germs per inoculation point; read-out: Minimale Hemmkonzentrationen
# Staph. FK 422 = settings: test strain Staph. FK 422; Isosensitest-Agar (Oxoid), inoculum ca. 10^4 germs per inoculation point; read-out: Minimale Hemmkonzentrationen
Structure (SMILES),MIC (E.coli Neumann) [µg/mL],MIC (E.coli 455/7) [µg/mL],MIC (E.coli A261) [µg/mL],MIC (Klebsiella 63) [µg/mL],MIC (Klebsiella 8085) [µg/mL],MIC (Proteus mir. 8223) [µg/mL],MIC (Proteus mir. 8175) [µg/mL],MIC (Morg. morg. 11006) [µg/mL],MIC (Providencia 12052) [µg/mL],MIC (Serratia 16040) [µg/mL],MIC (Staph. 133) [µg/mL],MIC (Enteroc. 27101) [µg/mL],MIC (Enteroc. 9790) [µg/mL],MIC (Pseudomonas Walter) [µg/mL],MIC (Pseudomonas Ellsworth) [µg/mL],MIC (Proteus vulg. 1017) [µg/mL],MIC (Staph. 1756) [µg/mL],MIC (Morg. morg. 932) [µg/mL],MIC (Providencia 12012) [µg/mL],MIC (Staph. FK 422) [µg/mL]
"Nc1c(F)c(-n2ccnc2)c(F)c2c1c(=O)c(C(=O)O)cn2C1CC1 [Beispiel 30, 5-Amino-1-cyclopropyl-6,8-difluor-1,4-dihydro-7-(1-imidazolyl)-4-oxo-3-chinolincarbonsäure-methansulfonat]",0.03,16,2,0.06,0.03,2,0.06,0.06,4,8,0.03,0.25,0.25,2,0.25,–,–,–,–,–
"Nc1c(F)c(N2CCNC(c3ccc(F)cc3)C2)c(F)c2c1c(=O)c(C(=O)O)cn2C1CC1 (stereo not shown) [Beispiel 24, 5-Amino-1-cyclopropyl-6,8-difluor-7-[3-(4-fluorphenyl)-1-piperazinyl]-1,4-dihydro-4-oxo-3-chinolincarbonsäure]",–,4,1,–,–,2,0.25,0.25,4,8,0.06,0.25,0.25,2,0.25,0.06,0.06,–,–,–
"CCN1CCN(c2c(F)c(N)c3c(=O)c(C(=O)O)cn(C4CC4)c3c2F)CC1 [Beispiel 20, 5-Amino-1-cyclopropyl-7-(4-ethyl-1-piperazinyl)-6,8-difluor-1.4-dihydro-4-oxo-3-chinolincarbonsäure]",–,2,0.25,0.03,0.06,0.25,–,0.06,1,4,0.06,0.25,0.25,1,0.03,–,0.06,0.03,0.06,0.06
"CC1CN(c2c(F)c(N)c3c(=O)c(C(=O)O)cn(C4CC4)c3c2F)CCN1 (stereo not shown) [Beispiel 17, 5-Amino-1-cyclopropyl-6,8-difluor-1,4-dihydro-7-(3-methyl-1-piperazinyl)-4-oxo-3-chinolincarbonsäure]",–,0.5,–,–,–,0.25,0.06,–,2,2,0.03,–,–,0.25,–,–,0.03,–,–,0.03
"Nc1c(F)c(N2CCOCC2)c(F)c2c1c(=O)c(C(=O)O)cn2C1CC1 [Beispiel 26, 5-Amino-1-cyclopropyl-6,8-difluor-1,4-dihydro-7-morpholino-4-oxo-3-chinolincarbonsäure]",0.03,16,4,0.06,0.06,0.5,–,–,8,8,0.03,0.25,0.25,2,0.03,0.03,0.03,0.03,0.06,0.03
"Nc1c(F)c(N2CCC(O)C2)c(F)c2c1c(=O)c(C(=O)O)cn2C1CC1 (stereo not shown) [Beispiel 28, 5-Amino-1-cyclopropyl-6,8-difluor-1,4-dihydro-7-(3-hydroxy-1-pyrrolidinyl)-4-oxo-3-chinolincarbonsäure]",–,2,0.25,–,–,0.06,–,–,1,1,–,0.03,0.03,0.25,0.03,–,–,–,–,–
"CCNCC1CCN(c2c(F)c(N)c3c(=O)c(C(=O)O)cn(C4CC4)c3c2F)C1 (stereo not shown) [Beispiel 32, 5-Amino-1-cyclopropyl-7-(3-ethylaminomethyl-1-pyrrolidinyl)-6.8-difluor-1,4-dihydro-4-oxo-3-chinolincarbonsäure-hydrochlorid-hydrat]",–,1,0.06,–,0.03,0.5,0.06,0.03,1,4,0.03,0.03,0.03,1,0.03,–,0.03,–,0.03,0.03
"Nc1c(F)c(N2CCCC2)c(F)c2c1c(=O)c(C(=O)O)cn2C1CC1 [Beispiel 27, 5-Amino-1-cyclopropyl-6,8-difluor-1,4-dihydro-4-oxo-7-(1-pyrrolidinyl)-3-chinolincarbonsäure]",–,16,2,–,–,0.25,0.25,–,8,16,–,0.03,–,1,–,0.06,–,0.06,0.06,–
Nc1c(F)c(N2CCN(CCO)CC2)c(F)c2c1c(=O)c(C(=O)O)cn2C1CC1 [Beispiel 21],–,2,0.5,0.06,0.06,0.5,–,–,2,4,0.06,0.25,0.25,1,–,–,0.06,0.03,0.06,0.06
"Nc1c(F)c(N2CCN3CCC2C3)c(F)c2c1c(=O)c(C(=O)O)cn2C1CC1 (stereo not shown) [Beispiel 25, 5-Amino-1-cyclopropyl-7-(1,4-diazabicyclo[3.2.1]oct-4-yl)-6,8-difluor-1,4-dihydro-4-oxo-3-chinolincarbonsäure]",–,1,–,0.03,0.06,1,–,0.03,4,4,–,–,–,0.5,0.03,–,–,–,0.06,–
"Nc1c(F)c(N2CCNC(c3ccccc3)C2)c(F)c2c1c(=O)c(C(=O)O)cn2C1CC1 (stereo not shown) [Beispiel 23, 5-Amino-1-cyclopropyl-6,8-difluor-1,4-dihydro-4-oxo-7-(3-phenyl-1-piperazinyl)-3-chinolincarbonsäure]",–,1,0.25,–,0.03,–,0.06,0.03,1,2,–,0.03,0.06,1,–,–,–,–,–,–
"C[C@@H]1CN(c2c(F)c(N)c3c(=O)c(C(=O)O)cn(C4CC4)c3c2F)C[C@H](C)N1 [Beispiel 22, 5-Amino-1-cyclopropyl-6,8-difluor-1,4-dihydro-7-(cis-3,5-dimethyl-1-piperazinyl)-4-oxo-3-chinolincarbonsäure]",–,0.5,–,0.03,0.06,0.5,0.06,0.03,1,2,0.03,–,0.25,0.5,0.03,–,0.03,0.03,0.03,0.03

# From patent EP0284935A1, “5-Substituted quinolone- and naphthyridone carboxylic acid derivatives” (BAYER AG, priority 1987, dated 1988)
